Laboratory results published in PMC4891657, “Orexin 2 Receptor Antagonism is Sufficient to Promote NREM and REM Sleep from Mouse to Man” (Scientific Reports, 2016).
Residue numbers refer to the chain shown, from its start.

Experiments:
OX2R [1] = target: T1, OX2R (Rattus norvegicus, UniProt P56719); assay: Inhibition of orexin-peptide-A-induced calcium mobilization in CHO cells, rat OX2R; assay type: cell-based; conditions: for fold OX2R selectivity (Kb): OX1R Kb / OX2R Kb
T1 construct: expressed in transfected cells; host or cells: CHO-K1
T1 sequence (P56719 1-460): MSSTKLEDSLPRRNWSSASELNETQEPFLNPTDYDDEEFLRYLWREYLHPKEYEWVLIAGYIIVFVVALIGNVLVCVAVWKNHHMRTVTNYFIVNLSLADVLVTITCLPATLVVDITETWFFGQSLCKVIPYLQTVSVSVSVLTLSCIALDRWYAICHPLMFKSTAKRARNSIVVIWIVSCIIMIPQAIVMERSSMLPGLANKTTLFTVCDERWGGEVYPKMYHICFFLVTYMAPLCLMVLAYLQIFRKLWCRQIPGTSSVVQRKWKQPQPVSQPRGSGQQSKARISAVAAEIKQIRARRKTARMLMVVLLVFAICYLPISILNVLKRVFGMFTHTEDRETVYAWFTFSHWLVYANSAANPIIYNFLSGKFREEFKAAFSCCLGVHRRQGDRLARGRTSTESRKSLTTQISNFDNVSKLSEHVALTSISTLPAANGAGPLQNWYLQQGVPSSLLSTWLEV
Experimental: (§1) MK-1064 was evaluated for its ability to inhibit orexin-peptide-A-induced calcium mobilization in CHO cell lines separately expressing OX1R and OX2R from mice, rats, rabbits, dogs, rhesus monkeys and humans.
(§2) Binding and functional blockade of OX1R and OX2R with MK-1064 relative to other 2-SORAs and the DORA, MK-6096, were assessed using membranes from Chinese hamster ovary (CHO)-K1 cells (American Type Tissue Collection, Manassas, VA) transfected to express human, mouse, rat, rabbit, dog, or rhesus monkey OX1R or OX2R receptors, as described previously. The kinetics of binding to human OX2R was assessed by radioligand displacement on CHO-K1 cells expressing the receptor. […] The ON rate analysis was performed by presoaking GF/B filters in 0.3% polyethyleneimine (Sigma) using a Skatron 12-well cell harvester and cold buffer at the indicated time points after addition. For OFF rate determination, binding reactions were allowed to proceed to equilibrium and terminated with 1000x [Kd] of unlabeled antagonist and filtered as above at pre-determined time points. Ultima Gold^TM (PerkinElmer 6013327) scintillation cocktail was added to each filter disc and counted on a PerkinElmer TriCarb 2910 scintillation counter. Data were analyzed using GraphPad® Prism v 6.04 (San Diego, CA, USA). The KON rate was determined according to the equation, KON = (KOBS − KOFF)/[ligand].

OX2R [2] = target: T1, OX2R; assay: Radio-ligand displacement binding, CHO-K1 membranes, rat OX2R; conditions: for fold OX2R selectivity (Ki): OX1R Ki / OX2R Ki; for Ki: read-out: OX2R affinity (Ki)
Experimental: as §1, §2

OX1R [3] = target: T2, OX1R (Canis lupus familiaris, UniProt A0A8I3RSX8); assay: Inhibition of orexin-peptide-A-induced calcium mobilization in CHO cells, dog OX1R; assay type: cell-based
T2 sequence (A0A8I3RSX8 1-427): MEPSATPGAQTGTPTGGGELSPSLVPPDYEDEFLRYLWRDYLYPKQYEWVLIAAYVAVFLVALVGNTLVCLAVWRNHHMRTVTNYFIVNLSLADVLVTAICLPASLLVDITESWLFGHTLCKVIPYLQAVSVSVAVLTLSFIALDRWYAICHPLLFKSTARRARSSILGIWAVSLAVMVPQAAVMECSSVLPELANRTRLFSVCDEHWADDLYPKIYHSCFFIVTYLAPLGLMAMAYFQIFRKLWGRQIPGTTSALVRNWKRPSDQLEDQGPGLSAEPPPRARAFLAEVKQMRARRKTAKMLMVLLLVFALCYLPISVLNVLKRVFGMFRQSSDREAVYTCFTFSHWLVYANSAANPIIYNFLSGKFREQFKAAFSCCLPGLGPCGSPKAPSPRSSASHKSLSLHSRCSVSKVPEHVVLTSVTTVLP
Experimental: as §1, §2

OX1R [4] = target: T3, OX1R (Oryctolagus cuniculus, UniProt G1SPJ3); assay: Inhibition of orexin-peptide-A-induced calcium mobilization in CHO cells, rabbit OX1R; assay type: cell-based
T3 sequence (G1SPJ3 1-416): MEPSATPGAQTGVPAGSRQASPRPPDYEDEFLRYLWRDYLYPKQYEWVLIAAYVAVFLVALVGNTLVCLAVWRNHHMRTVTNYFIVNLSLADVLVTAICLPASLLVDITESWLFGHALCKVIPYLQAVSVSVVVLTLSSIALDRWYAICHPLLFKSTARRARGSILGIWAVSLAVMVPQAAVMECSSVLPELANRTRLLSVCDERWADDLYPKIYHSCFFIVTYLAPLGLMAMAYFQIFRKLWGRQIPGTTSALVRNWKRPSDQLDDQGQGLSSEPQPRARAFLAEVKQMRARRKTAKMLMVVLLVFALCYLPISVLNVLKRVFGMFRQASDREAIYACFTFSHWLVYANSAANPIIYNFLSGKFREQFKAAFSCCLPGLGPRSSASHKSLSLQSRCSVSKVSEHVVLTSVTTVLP
Experimental: as §1, §2

OX1R [5] = target: T4, OX1R (Rattus norvegicus, UniProt P56718); assay: Radio-ligand displacement binding, CHO-K1 membranes, rat OX1R; conditions: read-out: OX1R affinity (Ki)
T4 construct: expressed in transfected cells; host or cells: CHO-K1
T4 sequence (P56718 1-416): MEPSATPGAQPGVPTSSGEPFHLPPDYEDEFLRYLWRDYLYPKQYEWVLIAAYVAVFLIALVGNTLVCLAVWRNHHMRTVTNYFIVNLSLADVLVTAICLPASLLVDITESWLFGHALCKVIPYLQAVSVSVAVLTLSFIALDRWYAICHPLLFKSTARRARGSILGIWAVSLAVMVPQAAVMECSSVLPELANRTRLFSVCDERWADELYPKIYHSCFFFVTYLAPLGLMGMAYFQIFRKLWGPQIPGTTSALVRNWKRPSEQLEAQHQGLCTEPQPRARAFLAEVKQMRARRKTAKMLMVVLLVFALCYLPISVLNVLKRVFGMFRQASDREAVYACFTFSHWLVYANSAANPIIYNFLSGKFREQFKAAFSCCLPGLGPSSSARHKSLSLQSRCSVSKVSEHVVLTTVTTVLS
Experimental: as §1, §2

OX2R [6] = target: T5, OX2R (Mus musculus, UniProt P58308); assay: Radio-ligand displacement binding, CHO-K1 membranes, mouse OX2R; conditions: for fold OX2R selectivity (Ki): OX1R Ki / OX2R Ki; for Ki: read-out: OX2R affinity (Ki)
T5 construct: expressed in transfected cells; host or cells: CHO-K1
T5 sequence (P58308 1-460): T1 sequence (P56719 1-460) with P11S, R193C, R213H, V240I, P269Q, R387H, A424V
Experimental: as §1, §2

Structure (SMILES) | Kb (OX2R [1]) | fold OX2R selectivity (Kb) (OX2R [1]) | fold OX2R selectivity (Ki) (OX2R [2]) | Ki (OX2R [2]) | Kb (OX1R [3]) | Kb (OX1R [4]) | Ki (OX1R [5]) | fold OX2R selectivity (Ki) (OX2R [6]) | Ki (OX2R [6])
Cc1ccc(-c2ncccn2)c(C(=O)N2C[C@H](COc3ccc(F)cn3)CC[C@H]2C)c1 [MK-6096] | 22 nM | [0.5] fold | [11.4] fold | 0.22 nM | 10 nM | 13 nM | 2.5 nM | [5.2] fold | 0.56 nM
COc1ccc(CNC(=O)c2cc(-c3cncc(C)c3)ncc2-c2ccccc2)nc1OC [2-SORA-7] | 18 nM | [3238] fold | [11877] fold | 0.22 nM | > 10000 nM | 16800 nM | 2610 nM | [2040] fold | 0.83 nM
COc1ccc(CNC(=O)c2cc(-c3cncc(Cl)c3)cnc2-c2ccccn2)nc1OC [MK-1064, 5″-chloro-N-[(5,6-dimethoxypyridin-2-yl)methyl]-2,2′:5′, 3″-terpyridine-3′-carbo xamide] | 13 nM | [613] fold | [1288] fold | 0.83 nM | 3700 nM | 7370 nM | 1070 nM | [1136] fold | 1.02 nM
COc1ccc(CNC(=O)c2cc(-c3cncc(C)c3)ncc2-c2nccs2)nc1OC [MK-3697] | 31 nM |  |  | 1.93 nM | > 10000 nM | 32100 nM | 2390 nM |  | 1.47 nM
COc1ccc(CNC(=O)c2cc(-c3cc(Cl)cc(Cl)c3)cnc2-c2cccnc2)cc1OC [2-SORA-18] | 21 nM | [50] fold | [522] fold | 0.18 nM | 87 nM | 496 nM | 94 nM | [653] fold | 0.15 nM
